Source: ChEMBL document CHEMBL4715789, “Identification of a Potential Antimalarial Drug Candidate from a Series of 2-Aminopyrazines by Optimization of Aqueous Solubility and Potency across the Parasite Life Cycle” (J Med Chem, 2016)
pIC50: −log10 of the molar value. Converted amounts (≈) assume the structure as drawn.

Experiments:
[1] = Aqueous solubility of compound in pH 2 0.01M HCl incubated for 2 hrs under shaking condition by shake-flask method based HPLC-DAD analysis; assay type: physicochemical
[2] = Aqueous solubility of compound in pH 6.5 PBS incubated for 2 hrs under shaking condition by shake-flask method based HPLC-DAD analysis; assay type: physicochemical
[3] = system: Plasmodium berghei; assay: Antiplasmodial activity against Plasmodium berghei ANKA infected in NMRI mouse assessed as reduction in parasitemia at 3 mg/kg, po qd for 4 consecutive days measured at day 7 post infection by flow cytometry analysis; assay type: functional; set-up: scale not given: the % may be the effect or the level left; details: time 4 day
[4] = system: Plasmodium berghei; assay: Antiplasmodial activity against Plasmodium berghei ANKA infected in NMRI mouse model assessed as mean survival days at 3 mg/kg, po qd for 4 consecutive day; assay type: functional; details: time 4 day
[5] = system: Plasmodium falciparum; assay: microbe, parasite or virus in culture; details: NF54, Erythrocyte
Description: Antiplasmodial activity against multidrug-sensitive Plasmodium falciparum NF54 infected in human erythrocytes assessed as reduction in [3H]hypoxanthine incorporation preincubated for 48 hrs followed by [3H]hypoxanthine addition and measured after 24 hrs by liquid scintillation counting method

[6] = system: Plasmodium falciparum; assay: microbe, parasite or virus in culture; details: K1, Erythrocyte
Description: Antiplasmodial activity against multidrug-resistant Plasmodium falciparum K1 infected in erythrocytes assessed as reduction in [3H]hypoxanthine incorporation preincubated for 48 hrs followed by [3H]hypoxanthine addition and measured after 24 hrs by liquid scintillation counting method

[7] = Metabolic stability in human liver microsomes assessed as compound remaining at 0.1 uM measured after 30 mins in presence of cofactor NADPH by LC-MS/MS analysis; assay type: ADME, Microsome; details: read-out: Stabilty
[8] = Metabolic stability in rat liver microsomes assessed as compound remaining at 0.1 uM measured after 30 mins in presence of cofactor NADPH by LC-MS/MS analysis; assay type: ADME, Microsome; details: read-out: Stabilty
[9] = Metabolic stability in mouse liver microsomes assessed as compound remaining at 0.1 uM measured after 30 mins in presence of cofactor NADPH by LC-MS/MS analysis; assay type: ADME, Microsome; details: read-out: Stabilty
[10] = system: Plasmodium berghei; assay: Antiplasmodial activity against Plasmodium berghei ANKA infected in NMRI mouse model assessed as mean survival days at 10 mg/kg, po qd for 4 consecutive day; assay type: functional; details: time 4 day
[11] = system: Plasmodium berghei; assay: Antiplasmodial activity against Plasmodium berghei ANKA infected in NMRI mouse assessed as reduction in parasitemia at 10 mg/kg, po qd for 4 consecutive days measured at day 7 post infection by flow cytometry analysis; assay type: functional; set-up: scale not given: the % may be the effect or the level left; details: time 4 day
[12] = Selectivity index, ratio of IC50 for cytotoxicity against CHO cells by MTT assay to IC50 for antiplasmodial activity against multidrug-sensitive Plasmodium falciparum NF54 infected in human erythrocytes; assay type: toxicity, cell-based; details: Chinese hamster, read-out: Ratio IC50
[13] = Cmax(app) in NMRI mouse plasma infected with Plasmodium berghei ANKA at 3 mg/kg, po qd for 4 consecutive days and measured post last dose; assay type: ADME, organism-based; details: time 4 day
[14] = target: Voltage-gated inwardly rectifying potassium channel KCNH2 (Homo sapiens, UniProt Q12809); assay: Inhibition of human ERG by IonWorks patch clamp electrophysiology method
Sequence of Voltage-gated inwardly rectifying potassium channel KCNH2 (Q12809 whole entry): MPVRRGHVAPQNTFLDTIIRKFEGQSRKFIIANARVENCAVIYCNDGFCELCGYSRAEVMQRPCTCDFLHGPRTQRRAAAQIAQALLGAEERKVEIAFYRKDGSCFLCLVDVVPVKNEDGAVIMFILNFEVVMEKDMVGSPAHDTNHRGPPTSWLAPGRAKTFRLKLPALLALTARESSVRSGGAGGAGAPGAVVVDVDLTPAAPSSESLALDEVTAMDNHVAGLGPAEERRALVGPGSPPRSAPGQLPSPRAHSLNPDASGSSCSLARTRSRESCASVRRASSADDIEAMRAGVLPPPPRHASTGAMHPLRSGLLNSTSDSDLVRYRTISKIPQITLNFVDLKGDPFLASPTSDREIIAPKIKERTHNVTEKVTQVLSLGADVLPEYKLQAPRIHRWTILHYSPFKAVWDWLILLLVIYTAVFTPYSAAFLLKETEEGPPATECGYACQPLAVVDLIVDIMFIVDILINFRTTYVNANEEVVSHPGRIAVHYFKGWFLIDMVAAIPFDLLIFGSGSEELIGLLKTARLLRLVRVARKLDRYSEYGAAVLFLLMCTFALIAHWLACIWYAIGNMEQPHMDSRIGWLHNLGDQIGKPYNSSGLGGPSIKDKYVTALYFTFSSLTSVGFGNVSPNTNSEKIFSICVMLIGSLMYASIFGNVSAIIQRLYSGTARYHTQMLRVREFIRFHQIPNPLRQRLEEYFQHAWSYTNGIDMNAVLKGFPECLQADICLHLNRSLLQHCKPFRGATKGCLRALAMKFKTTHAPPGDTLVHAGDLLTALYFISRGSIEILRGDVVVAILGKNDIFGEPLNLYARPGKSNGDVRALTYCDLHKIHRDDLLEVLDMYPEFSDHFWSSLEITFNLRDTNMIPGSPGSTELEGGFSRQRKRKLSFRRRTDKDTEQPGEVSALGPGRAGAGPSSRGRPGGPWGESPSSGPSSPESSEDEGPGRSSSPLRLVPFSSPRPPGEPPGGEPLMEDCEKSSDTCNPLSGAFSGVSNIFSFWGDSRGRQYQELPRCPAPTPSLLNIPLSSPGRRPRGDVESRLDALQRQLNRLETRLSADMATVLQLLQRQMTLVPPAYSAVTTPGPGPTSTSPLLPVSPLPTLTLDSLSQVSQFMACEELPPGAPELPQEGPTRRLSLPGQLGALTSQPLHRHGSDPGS

Row | SMILES | solubility thermodynamic at 2 h [1] [µM] | solubility thermodynamic at 2 h [2] [µM] | Activity [3] [%] | MSD [4] [days] | pIC50 [5] | pIC50 [6] | remaining at 0.5 h, 0.1 µM [7] [%] | remaining at 0.5 h, 0.1 µM [8] [%] | remaining at 0.5 h, 0.1 µM [9] [%] | MSD [10] [days] | Activity [11] [%] | selectivity ratio [12] | Cmax [13] [nM] | pIC50 [14]
1 | Nc1ncc(-c2ccc(C(=O)N3CCC(O)C3)cc2)nc1-c1ccc(C(F)(F)F)nc1 (stereo unspecified) | 200 (≈ 85.9 µg/mL) | 155 (≈ 66.6 µg/mL) | 61 | 7 | 7.74 | 7.92 | – | – | – | – | – | – | – | –
2 | Nc1ncc(-c2ccc(C(F)(F)F)nc2)nc1-c1ccc(C(F)(F)F)nc1 | – | – | – | – | – | – | > 90 | > 90 | > 90 | – | – | – | – | –
3 | CS(=O)(=O)c1ccc(-c2cnc(N)c(-c3ccc(N)nc3)n2)cc1 | 206 (≈ 70.3 µg/mL) | 149 (≈ 50.9 µg/mL) | – | – | 7.42 | 7.57 | > 90 | > 90 | > 90 | – | – | – | – | –
4 | Nc1ncc(-c2ccc(C(=O)N3CCNCC3)cc2)nc1-c1ccc(C(F)(F)F)nc1 | 200 (≈ 85.7 µg/mL) | 198 (≈ 84.8 µg/mL) | <40 | – | 8.04 | 8.11 | > 90 | > 90 | > 90 | – | – | – | – | –
5 | NC(=O)c1ccc(-c2cnc(N)c(-c3ccc(C(N)=O)cc3)n2)cc1 | – | – | – | – | 7.60 | 7.68 | – | – | – | – | – | – | – | –
6 | CNC(=O)c1ccc(-c2nc(-c3ccc(C(N)=O)cc3)cnc2N)cc1 | 186 (≈ 64.6 µg/mL) | 178 (≈ 61.8 µg/mL) | – | – | 7.28 | 7.28 | – | – | – | – | – | – | – | –
7 | Nc1ncc(-c2ccc(C(=O)N3CCC(N)C3)cc2)nc1-c1ccc(C(F)(F)F)nc1 (stereo unspecified) | 200 (≈ 85.7 µg/mL) | 116 (≈ 49.7 µg/mL) | 47 | 7 | 7.40 | 7.59 | – | – | – | – | – | – | – | –
8 | CN1CCN(C(=O)c2ccc(-c3cnc(N)c(-c4ccc(C(F)(F)F)nc4)n3)cc2)CC1 | 200 (≈ 88.5 µg/mL) | 182 (≈ 80.5 µg/mL) | 81 | 7 | 8.00 | 8.00 | > 90 | > 90 | > 90 | 8 | – | – | – | –
9 | Nc1ncc(-c2ccc(C(=O)N3CC[C@H](O)C3)cc2)nc1-c1ccc(C(F)(F)F)cc1 | 93 (≈ 39.8 µg/mL) | 68 (≈ 29.1 µg/mL) | – | 8 | 8.22 | – | > 90 | > 90 | > 90 | 16 | 100 | – | – | –
10 | NC(=O)c1ccc(-c2cnc(N)c(-c3ccc(C(F)(F)F)nc3)n2)cn1 | 7 (≈ 2.52 µg/mL) | 5 (≈ 1.8 µg/mL) | 97.5 | 7 | 8.28 | 8.14 | > 90 | > 90 | > 90 | 14 | 99.9 | > 1800 | – | –
11 | Nc1ccc(-c2cnc(N)c(-c3ccc(C(F)(F)F)nc3)n2)cn1 | 199 (≈ 66.1 µg/mL) | 34 (≈ 11.3 µg/mL) | – | – | – | – | > 90 | > 90 | > 90 | – | – | – | – | –
12 | CN1CCN(C(=O)c2ccc(-c3cnc(N)c(-c4ccc(C(F)(F)F)cc4)n3)cc2)CC1 | – | – | – | 12 | 8.10 | 8.17 | > 90 | > 90 | > 90 | 26 | – | – | 1600 | –
13 | CN1CCCN(C(=O)c2ccc(-c3cnc(N)c(-c4ccc(C(F)(F)F)nc4)n3)cc2)CC1 | 200 (≈ 91.3 µg/mL) | 85 (≈ 38.8 µg/mL) | – | 12 | 7.82 | 8.00 | > 90 | > 90 | > 90 | – | – | – | – | –
14 | CN1CCCN(C(=O)c2ccc(-c3cnc(N)c(-c4ccc(C(F)(F)F)cc4)n3)cc2)CC1 | 200 (≈ 91.1 µg/mL) | 152 (≈ 69.2 µg/mL) | 90 | 7 | 8.17 | 8.24 | – | – | – | – | – | – | – | 5.30
15 | COC(=O)c1ccc(-c2cnc(N)c(-c3ccc(C(F)(F)F)cc3)n2)cc1 | < 5 | < 5 | – | – | 5.58 | – | – | – | – | – | – | – | – | –
16 | NC(=O)c1ccc(-c2cnc(N)c(-c3ccc(C(F)(F)F)nc3)n2)nc1 | 123 (≈ 44.3 µg/mL) | < 5 | – | – | 5.80 | – | – | – | – | – | – | – | – | –
17 | CC(C)(C)N1CCN(C(=O)c2ccc(-c3cnc(N)c(-c4ccc(C(F)(F)F)cc4)n3)cc2)CC1 | 200 (≈ 96.7 µg/mL) | 95 (≈ 45.9 µg/mL) | – | – | 7.77 | 7.96 | – | – | – | – | – | – | – | 5.70
18 | Nc1ncc(-c2ccc(C(=O)N3CCCNCC3)cc2)nc1-c1ccc(C(F)(F)F)cc1 | 190 (≈ 83.9 µg/mL) | 128 (≈ 56.5 µg/mL) | 88 | 11 | 8.11 | 8.20 | – | – | – | – | – | – | – | –
19 | N#Cc1ccc(-c2cnc(N)c(-c3ccc(C(F)(F)F)nc3)n2)nc1 | – | – | – | – | 5.57 | – | – | – | – | – | – | – | – | –
20 | Nc1ccc(-c2nc(-c3ccc(C(=O)N4CCNCC4)cc3)cnc2N)cn1 | 189 (≈ 71 µg/mL) | 186 (≈ 69.8 µg/mL) | – | – | 7.29 | 7.43 | – | – | – | – | – | – | – | –
21 | Nc1ncc(-c2ccc(C(=O)N3CCC(N)CC3)cc2)nc1-c1ccc(C(F)(F)F)cc1 | 200 (≈ 88.3 µg/mL) | 88 (≈ 38.8 µg/mL) | 65 | 7 | 8.00 | 8.12 | – | – | – | – | – | – | – | –
22 | Nc1ccc(-c2nc(-c3ccc(S(=O)(=O)C4CC4)cc3)cnc2N)cn1 | 212 (≈ 77.9 µg/mL) | 13 (≈ 4.78 µg/mL) | – | – | 7.42 | 7.36 | > 90 | > 90 | > 90 | – | – | – | – | –
23 | N#Cc1ccc(-c2cnc(N)c(-c3ccc(N)nc3)n2)cc1 | 208 (≈ 60 µg/mL) | < 5 | – | – | 6.65 | 6.83 | > 90 | > 90 | > 90 | – | – | – | – | –
24 | Nc1ccc(-c2cnc(N)c(-c3ccc(N)nc3)n2)cn1 | – | – | – | – | 6.69 | 6.84 | > 90 | > 90 | > 90 | – | – | – | – | –
25 | Nc1ncc(-c2ccc(C(=O)N3CCC(N)CC3)cc2)nc1-c1ccc(C(F)(F)F)nc1 | 200 (≈ 88.5 µg/mL) | 163 (≈ 72.1 µg/mL) | 41 | 6 | 7.70 | 7.74 | – | – | – | – | – | – | – | –
26 | N#Cc1ccc(-c2cnc(N)c(-c3ccc(C(N)=O)cc3)n2)cc1 | – | – | – | – | 7.24 | 7.36 | – | – | – | – | – | – | – | –
27 | Nc1ncc(-c2ccc(C(=O)N3CCCNCC3)cc2)nc1-c1ccc(C(F)(F)F)nc1 | 200 (≈ 88.5 µg/mL) | 146 (≈ 64.6 µg/mL) | 55 | 7 | 7.90 | 7.99 | – | – | – | – | – | – | – | –
